Experimental data: patent US10125148B2, “Pyrazolopyrimidine macrocycles as inhibitors of human immunodeficiency virus replication” (priority 2014, dated 2018)
pEC50: −log10 of the molar value.

Each compound was assayed on NL-RLuc virus (assay: Inhibition of HIV replication (NL-RLuc luciferase reporter virus in MT-2 cells)). Conditions: Human immunodeficiency virus 1, MT2, 120 h.
Format: cell-based

SMILES	pEC50
Cc1cc(F)c2c(c1)O[C@@H](C)C/C=C/COC1(C)CCN(CC1)c1c([C@H](OC(C)(C)C)C(=O)O)c(C)nc3cc(nn13)-c1cccc-2c1 [Example 4, (2S)-2-(tert-Butoxy)-2-[(22S,24E)-16-fluoro-4,18,22,28-tetramethyl-21,27-dioxa-1,5,7,8-tetraazahexacyclo[26.2.2.1^6,9.1^10,14.0^2,7.0^15,20]tetratriaconta-2,4,6(34),8,10(33),11,13,15(20),16,18,24-undecaen-3-yl]acetic acid]	7.64
COc1ccc2c(c1)-c1cccc(c1)-c1cc3nc(C)c([C@H](OC(C)(C)C)C(=O)O)c(n3n1)N1CCC(C)(CC1)OCCCC[C@H](C)O2 [Example 8, (2S)-2-(tert-Butoxy)-2-[(22S)-17-methoxy-4,22,28-trimethyl-21,27-dioxa-1,5,7,8-tetraazahexacyclo[26.2.2.1^6,9.1^10,14.0^2,7.0^15,20]tetratriaconta-2,4,6(34),8,10(33),11,13,15(20),16,18-decaen-3-yl]acetic acid]	8.30
Cc1nc2cc3nn2c(c1[C@H](OC(C)(C)C)C(=O)O)N1CCC(C)(CC1)OCCCC[C@H](C)Oc1cc(F)cc(F)c1-c1cccc-3c1 [Example 3, (2S)-2-(tert-Butoxy)-2-[(22S)-16,18-difluoro-4,22,28-trimethyl-21,27-dioxa-1,5,7,8-tetraazahexacyclo[26.2.2.1^6,9.1^10,14.0^2,7.0^15,20]tetratriaconta-2,4,6(34),8,10(33),11,13,15(20),16,18-decaen-3-yl]acetic acid]	7.59
Cc1nc2cc3nn2c(c1[C@H](OC(C)(C)C)C(=O)O)N1CCC(C)(CC1)OCCCC[C@H](C)Oc1cc(F)ccc1-c1ccc(F)c-3c1 [Example 26, (2S)-2-(tert-Butoxy)-2-[(22S)-11,18-difluoro-4,22,28-trimethyl-21,27-dioxa-1,5,7,8-tetraazahexacyclo[26.2.2.1^6,9.1^10,14.0^2,7.0^15,20]tetratriaconta-2,4,6(34),8,10(33),11,13,15(20),16,18-decaen-3-yl]acetic acid]	7.31
Cc1nc2cc3nn2c(c1[C@H](OC(C)(C)C)C(=O)O)N1CCC(C)(CCCCCC(C)Oc2ccc(C#N)cc2-c2cccc-3c2)CC1 (stereo in doubt) [Example 23, (2S)-2-(tert-Butoxy)-2-[(22S)-17-cyano-4,22,28-trimethyl-21-oxa-1,5,7,8-tetraazahexacyclo[26.2.2.1^6,9.1^10,14.0^2,7.0^15,20]tetratriaconta-2,4,6(34),8,10(33),11,13,15(20),16,18-decaen-3-yl]acetic acid]	7.62
Cc1nc2cc3nn2c(c1[C@H](OC(C)(C)C)C(=O)O)N1CCC(C)(CC1)OCCC[C@H](C)Oc1cc(F)ccc1-c1cccc-3c1 [Example 10, (2S)-2-(tert-Butoxy)-2-[(22S)-18-fluoro-4,22,27-trimethyl-21,26-dioxa-1,5,7,8-tetraazahexacyclo[25.2.2.1^6,9.1^10,14.0^2,7.0^15,20]tritriaconta-2,4,6(33),8,10(32),11,13,15(20),16,18-decaen-3-yl]acetic acid]	7.96
CCc1ccc2c(c1)-c1cccc(c1)-c1cc3nc(C)c([C@H](OC(C)(C)C)C(=O)O)c(n3n1)N1CCC(C)(CC1)OCCCC[C@H](C)O2 [Example 7, (2S)-2-(tert-Butoxy)-2-[(22S)-17-ethyl-4,22,28-trimethyl-21,27-dioxa-1,5,7,8-tetraazahexacyclo[26.2.2.1^6,9.1^10,14.0^2,7.0^15,20]tetratriaconta-2,4,6(34),8,10(33),11,13,15(20),16,18-decaen-3-yl]acetic acid]	7.54
Cc1nc2cc3nn2c(c1[C@H](OC(C)(C)C)C(=O)O)N1CCC(C)(CCCCCC(C)Oc2ccc(C(N)=O)cc2-c2cccc-3c2)CC1 (stereo in doubt) [Example 24, (2S)-2-(tert-butoxy)-2-[(22S)-17-carbamoyl-4,22,28-trimethyl-21-oxa-1,5,7,8-tetraazahexacyclo[26.2.2.1^6,9.1^10,14.0^2,7.0^15,20]tetratriaconta-2,4,6(34),8,10(33),11,13,15(20),16,18-decaen-3-yl]acetic acid]	8.40
Cc1ccc2c(c1)-c1cccc(c1)-c1cc3nc(C)c([C@H](OC(C)(C)C)C(=O)O)c(n3n1)N1CCC(C)(CCC=CCC(C)O2)CC1 (stereo in doubt) [Example 20, (2S)-2-(tert-Butoxy)-2-[(22S)-4,17,22,28-tetramethyl-21-oxa-1,5,7,8-tetraazahexacyclo[26.2.2.1^6,9.1^10,14.0^2,7.0^15,20]tetratriaconta-2,4,6(34),8,10(33),11,13,15(20),16,18,24-undecaen-3-yl]acetic acid]	6.88
Cc1ccc2c(c1F)-c1cccc(c1)-c1cc3nc(C)c([C@H](OC(C)(C)C)C(=O)O)c(n3n1)N1CCC(C)(CC1)OCCC[C@H](C)O2 [Example 12, (2S)-2-(tert-Butoxy)-2-[(22S)-16-fluoro-4,17,22,27-tetramethyl-21,26-dioxa-1,5,7,8-tetraazahexacyclo[25.2.2.1^6,9.1^10,14.0^2,7.0^15,20]tritriaconta-2,4,6(33),8,10(32),11,13,15(20),16,18-decaen-3-yl]acetic acid]	8.52
Cc1cc(F)c2c(c1)O[C@@H](C)CCCOC1(C)CCN(CC1)c1c([C@H](OC(C)(C)C)C(=O)O)c(C)nc3cc(nn13)-c1cccc-2c1 [Example 18, (2S)-2-(tert-Butoxy)-2-[(22S)-16-fluoro-4,18,22,27-tetramethyl-21,26-dioxa-1,5,7,8-tetraazahexacyclo[25.2.2.1^6,9.1^10,14.0^2,7.0^15,20]tritriaconta-2,4,6(33),8,10(32),11,13,15(20),16,18-decaen-3-yl]acetic acid]	8.15
Cc1ccc2c(c1)-c1cccc(c1)-c1cc3nc(C)c([C@H](OC(C)(C)C)C(=O)O)c(n3n1)N1CCC(C)(CCCCC[C@H](C)O2)CC1 [Example 21, (2S)-2-(tert-Butoxy)-2-[(22S)-4,17,22,28-tetramethyl-21-oxa-1,5,7,8-tetraazahexacyclo[26.2.2.1^6,9.1^10,14.0^2,7.0^15,20]tetratriaconta-2,4,6(34),8,10(33),11,13,15(20),16,18-decaen-3-yl]acetic acid]	6.82
Cc1ccc2c(c1)O[C@@H](C)/C=C/COC1(C)CCN(CC1)c1c([C@H](OC(C)(C)C)C(=O)O)c(C)nc3cc(nn13)-c1cccc-2c1 [Example 15, (2S)-2-(tert-Butoxy)-2-[(22S,23E)-4,18,22,27-tetramethyl-21,26-dioxa-1,5,7,8-tetraazahexacyclo[25.2.2.1^6,9.1^10,14.0^2,7.0^15,20]tritriaconta-2,4,6(33),8,10(32),11,13,15(20),16,18,23-undecaen-3-yl]acetic acid]	8.10
Cc1nc2cc3nn2c(c1[C@H](OC(C)(C)C)C(=O)O)N1CCC(C)(CC1)OCCC[C@H](C)Oc1ccc(F)cc1-c1cccc-3c1 [Example 14, (2S)-2-(tert-Butoxy)-2-[(22S)-17-fluoro-4,22,27-trimethyl-21,26-dioxa-1,5,7,8-tetraazahexacyclo[25.2.2.1^6,9.1^10,14.0^2,7.0^15,20]tritriaconta-2,4,6(33),8,10(32),11,13,15(20),16,18-decaen-3-yl]acetic acid]	8.05
Cc1nc2cc3nn2c(c1[C@H](OC(C)(C)C)C(=O)O)N1CCC(C)(CCC=CCC(C)Oc2ccc(C#N)cc2-c2cccc-3c2)CC1 (stereo in doubt) [Example 22, (2S)-2-(tert-Butoxy)-2-[(22S)-17-cyano-4,22,28-trimethyl-21-oxa-1,5,7,8-tetraazahexacyclo[26.2.2.1^6,9.1^10,14.0^2,7.0^15,20]tetratriaconta-2,4,6(34),8,10(33),11,13,15(20),16,18,24-undecaen-3-yl]acetic acid]	7.89
Cc1cc(F)c2c(c1)O[C@@H](C)/C=C/COC1(C)CCN(CC1)c1c([C@H](OC(C)(C)C)C(=O)O)c(C)nc3cc(nn13)-c1cccc-2c1 [Example 17, (2S)-2-(tert-Butoxy)-2-[(22S,23E)-16-fluoro-4,18,22,27-tetramethyl-21,26-dioxa-1,5,7,8-tetraazahexacyclo[25.2.2.1^6,9.1^10,14.0^2,7.0^15,20]tritriaconta-2,4,6(33),8,10(32),11,13,15(20),16,18,23-undecaen-3-yl]acetic acid]	8.05
Cc1ccc2c(c1)O[C@@H](C)CCCOC1(C)CCN(CC1)c1c([C@H](OC(C)(C)C)C(=O)O)c(C)nc3cc(nn13)-c1cccc-2c1 [Example 16, (2S)-2-(tert-Butoxy)-2-[(22S)-4,18,22,27-tetramethyl-21,26-dioxa-1,5,7,8-tetraazahexacyclo[25.2.2.1^6,9.1^10,14.0^2,7.0^15,20]tritriaconta-2,4,6(33),8,10(32),11,13,15(20),16,18-decaen-3-yl]acetic acid]	8.10
Cc1nc2cc3nn2c(c1[C@H](OC(C)(C)C)C(=O)O)N1CCC(C)(CC1)OCCCC[C@H](C)Oc1cc(F)ccc1-c1cc-3ccc1F [Example 28, (2S)-2-(tert-Butoxy)-2-[(22S)-13,18-difluoro-4,22,28-trimethyl-21,27-dioxa-1,5,7,8-tetraazahexacyclo[26.2.2.1^6,9.1^10,14.0^2,7.0^15,20]tetratriaconta-2,4,6(34),8,10(33),11,13,15(20),16,18-decaen-3-yl]acetic acid]	7.57
Cc1nc2cc3nn2c(c1[C@H](OC(C)(C)C)C(=O)O)N1CCC(C)(CC1)OCCCC[C@H](C)Oc1ccc(C(=O)NCCC(C)(C)C)cc1-c1cccc-3c1 [Example 25, (2S)-2-(tert-Butoxy)-2-[(22S)-17-[(3,3-dimethylbutyl)carbamoyl]-4,22,28-trimethyl-21,27-dioxa-1,5,7,8-tetraazahexacyclo[26.2.2.1^6,9.1^10,14.0^2,7.0^15,20]tetratriaconta-2,4,6(34),8,10(33),11,13,15(20),16,18-decaen-3-yl]acetic acid]	8.40
CCc1ccc2c(c1)-c1cccc(c1)-c1cc3nc(C)c([C@H](OC(C)(C)C)C(=O)O)c(n3n1)N1CCC(C)(CC1)OC/C=C/C[C@H](C)O2 [Example 6, (2S)-2-(tert-Butoxy)-2-[(22S)-17-ethyl-4,22,28-trimethyl-21,27-dioxa-1,5,7,8-tetraazahexacyclo[26.2.2.1^6,9.1^10,14.0^2,7.0^15,20]tetratriaconta-2,4,6(34),8,10(33),11,13,15(20),16,18,24-undecaen-3-yl]acetic acid]	7.51
